In article PMC8795568 (Proceedings of the National Academy of Sciences of the …, 2022):

Columns and labels:
several solid tumors = conditions: trial terminated; cited from earlier work
[1] = test system: NUT midline carcinoma and other solid cancers; conditions: patients, cited from earlier work
[2] = test system: midline nuclear protein in testis (NUT) carcinoma; conditions: phase IIb trial, closed; ref NCT02296476; cited from earlier work
[3] = clinical; cited from earlier work
Panc1 cells = assay: Cell growth assay; format: cell-based, human; conditions: Panc1, 1 μM each drug, until DMSO cells reached 100% confluence

**Q.** For `CNC(=O)N1N=C(c2ccc(N3CCN(C)CC3)cc2)c2cc(OC)c(OC)cc2C[C@@H]1C` [BAY1238097], which dose-limiting toxicities (several solid tumors) is on record?
**A.** high rates of dose-limiting toxicities at subtherapeutic doses

**Q.** With `CCNC(=O)C[C@@H]1N=C(c2ccc(Cl)cc2)c2cc(OC)ccc2-n2c(C)nnc21` [GSK525762] as the compound, how does the rate of nausea ([1]; adverse effects) read?
**A.** 40%

**Q.** And the rate of thrombocytopenia ([1]; adverse effects)?
**A.** 44%

**Q.** And the partial responses [1]?
**A.** 2 out of 10

**Q.** With `Cc1sc2c(c1C)C(c1ccc(Cl)cc1)=N[C@@H](CC(=O)Nc1ccc(O)cc1)c1nnc(C)n1-2` [MK-8628] as the compound, how does the clinical activity [2] read?
**A.** lack of detectable clinical activity

**Q.** For `COc1cc(OC)c2c(=O)[nH]c(-c3cc(C)c(OCCO)c(C)c3)nc2c1` [RVX000222], which safety [3] is on record?
**A.** improved safety threshold

**Q.** For `COc1ccc(CCc2nc3cc(-c4c(C)noc4C)ccc3n2C[C@H](C)N2CCOCC2)cc1Cl` [SGC-CBP30], which “cell growth (confluence)” value (Panc1 cells) is on record?
**A.** marginal effect on cell growth
